In ChEMBL document CHEMBL4049436, “Inhibitors of 15-Prostaglandin Dehydrogenase To Potentiate Tissue Repair” (J Med Chem, 2017):

How the values were obtained:
Liver = assay: (§1) Half life in mouse liver S9 fractions at 2 uM in presence of NADPH by LC-MS/MS analysis; assay type: ADME, tissue-based; conditions: s9, 2 µM
Mus musculus [1] = assay: (§2) Cmax in CD1 mouse at 10 mg/kg, ip measured at 10 to 1440 mins post dose by LC-MS/MS analysis; assay type: ADME, organism-based; set-up: dose 10 mg/kg, route intraperitoneal; conditions: mouse, in vivo
Mus musculus [2] = assay: (§3) AUC in CD1 mouse at 10 mg/kg, ip measured at 10 to 1440 mins post dose by LC-MS/MS analysis; assay type: ADME, organism-based; conditions: mouse, in vivo
[3] = Plasma concentration in CD1 mouse at 10 mg/kg, ip measured at 3 hrs post dose by LC-MS/MS analysis; assay type: ADME, organism-based
[4] = as §1; assay type: ADME, tissue-based; conditions: liver S9 fraction
[5] = Half life in human liver S9 fraction at 2 uM by LC-MS/MS analysis; assay type: ADME, tissue-based
[6] = as §2; assay type: ADME, organism-based; set-up: dose 10 mg/kg, route intraperitoneal; conditions: CD1, mouse, in vivo
[7] = as §3; assay type: ADME, organism-based; conditions: CD1, mouse, in vivo
[8] = Plasma concentration in […] mouse at […], ip measured up to 3 hrs post dose by LC-MS/MS analysis; assay type: ADME, organism-based

Row | t1/2 (Liver) | Cmax (Mus musculus [1]) | AUC (Mus musculus [2]) | concentration at 3 h [3] | half-life at 2 µM [4] | Cmax [6] | AUC [7] | SMILES | other results
1 | 0.033 h | – | – | – | – | – | – | CCCC[S+]([O-])c1sc2nc(-c3nccs3)cc(-c3ccc(COC(=O)CN(C)C)cc3)c2c1N (stereo not drawn) | –
2 | 1.38 h | 13000 nM | 959 µg·min/mL | 4200 nM | – | – | – | CCCC[S+]([O-])c1sc2nc(-c3nccs3)cc(-c3ccc(OCCO)cc3)c2c1N (stereo not drawn) | –
3 | 0.217 h | – | – | – | – | – | – | CCCC[S+]([O-])c1sc2nc(-c3nccs3)cc(-c3ccc(CO)cc3)c2c1N (stereo not drawn) | –

The next lines start with the compound.

Row | SMILES | t1/2 (Liver) | Cmax (Mus musculus [1]) | AUC (Mus musculus [2]) | concentration at 3 h [3] | half-life at 2 µM [4] | Cmax [6] | AUC [7] | other results
4 | COCC[S+]([O-])c1sc2nc(-c3nccs3)cc(-c3cnc(C)n3C)c2c1N (stereo not drawn) | > 4 h | 6200 nM | 116 µg·min/mL | 60 nM | – | – | – | –
5 | CCCC[S@@+]([O-])c1sc2nc(-c3nccs3)cc(-c3cnc(C)n3C)c2c1N | – | – | – | < 10 nM | 0.583 h | 3100 nM | 783 ng·h/mL | half-life at 2 µM [5]: > 4 h; concentration at 3 h [8]: < 10 nM
6 | COCCC[S+]([O-])c1sc2nc(-c3nccs3)cc(-c3cnc(C)n3C)c2c1N (stereo not drawn) | > 4 h | – | – | – | – | – | – | –
7 | CCCC[S+]([O-])c1sc2nc(-c3nccs3)nc(-c3ccccc3)c2c1N (racemic) | – | 10600 nM | 172 µg·min/mL | 60 nM | – | – | – | –
8 | CCCC[S+]([O-])c1sc2nc(-c3cccs3)cc(-c3ccccc3)c2c1N (stereo not drawn) | – | – | – | – | 1.38 h | 1500 nM | 1380 ng·h/mL | –
9 | CCCC[S@+]([O-])c1sc2nc(-c3nccs3)cc(-c3cnc(C)n3C)c2c1N | – | – | – | – | 4.82 h | – | – | half-life at 2 µM [5]: 3.73 h
10 | CCCC[S@@+]([O-])c1sc2nc(-c3cccs3)cc(-c3ccccc3)c2c1N | – | – | – | – | 0.217 h | 1600 nM | 717 ng·h/mL | –
